# Assay results as given in paper PMC2782669 (Journal of the American Chemical Society, 2009).
# “Also recorded” adds a separate entry of the source. Like-named read-outs stand apart in the source and are kept apart here.
# Key:
# [1] = tested on: B. subtilis HB5600 (dhbA∷spc); experiment: Disc diffusion growth promotion assay, HB5600; format: cell-based; settings: in the presence of 2,2′-dipyridyl
# esterase BesA [2] = experiment: BesA-catalyzed hydrolysis of apo siderophores followed by HPLC; format: biochemical, B. cereus ATCC 14579; settings: 72 nM enzyme, 64 μM siderophore
# B. subtilis ATCC 6051 [3] = settings: cited from earlier work
# esterase Fes [4] = settings: cited from earlier work
# [5] = tested on: B. subtilis HB5625 (feuA∷spc dhbA∷mls); experiment: Disc diffusion growth promotion assay, HB5625; format: cell-based; settings: in the presence of 2,2′-dipyridyl
# esterase Fes [6] = experiment: Fes-catalyzed hydrolysis of siderophores; format: biochemical; settings: Fes from Shigella flexneri, 64 μM substrates, 72 nM enzymes, HPLC
# [7] = Strong acid hydrolysis followed by HPLC; format: physicochemical; settings: 1 mg/mL, 6 M HCl, stirred 12 h (overnight)
# [8] = cited from earlier work; for log K3: [LH2]^4-; for log K4: [LH3]^3-; for log K5: [LH4]^2-; for log K6: [LH5]^-; for log K2: [LH]^5-; for log K1: [L]^6-; for Σlog K1-6: sum of the stepwise protonation constants
# [9] = cited from earlier work; for log β110: [FeL]^3-; for pM(Fe^III): pH 7.4, 1 μM total iron, 10 μM total ligand
# [10] = Potentiometric titration, ligand protonation constants; format: physicochemical
# [11] = format: physicochemical
# [12] = target: substrate-binding protein FeuA (Bacillus subtilis, UniProt P40409); experiment: Fluorescence quenching binding assay with FeuA-His6; design: species or system B. subtilis 168
# Chain of substrate-binding protein FeuA (P40409 21-317): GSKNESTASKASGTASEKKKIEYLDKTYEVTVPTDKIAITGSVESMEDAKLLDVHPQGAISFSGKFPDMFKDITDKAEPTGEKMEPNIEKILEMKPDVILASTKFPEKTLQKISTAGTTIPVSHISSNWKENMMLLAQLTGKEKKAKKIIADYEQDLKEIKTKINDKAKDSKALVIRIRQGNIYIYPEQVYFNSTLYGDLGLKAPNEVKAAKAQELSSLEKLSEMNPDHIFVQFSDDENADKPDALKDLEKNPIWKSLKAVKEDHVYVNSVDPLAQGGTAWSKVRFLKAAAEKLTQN
# esterase BesA [13] = experiment: BesA-catalyzed hydrolysis of ferric complexes followed by UV-Vis spectroscopy; format: biochemical, B. cereus ATCC 14579; settings: 100 μM substrate, 1 μM enzyme, 75 mM HEPES pH 7.5, UV-Vis over 12 h
# E. coli = settings: incorporated through FepA; cited from earlier work
# B. subtilis ATCC 6051 [14] = experiment: 55Fe-siderophore transport assay; format: cell-based; settings: 37 °C, iron-limited medium
compound,measurement,setting,value
"O=C(N[C@@H]1COC(=O)[C@H](NC(=O)c2cccc(O)c2O)COC(=O)[C@H](NC(=O)c2cccc(O)c2O)COC1=O)c1cccc(O)c1O (single isomer, unassigned; ent d) [D-Ent, D-enterobactin]",growth promotion of B. subtilis HB5600 (in words),[1],no significant zone of growth stimulation
same,hydrolysis of the apo siderophore by BesA,esterase BesA [2],no effect; also recorded: did not affect
same,transport properties in B. subtilis,B. subtilis ATCC 6051 [3],same transport properties as Ent
same,hydrolysis by Fes,esterase Fes [4],neither apo-D-Ent nor [Fe^III(D-Ent)]^3- are hydrolyzed by Fes
"C[C@H]1OC(=O)[C@@H](NC(=O)CNC(=O)c2cccc(O)c2O)[C@@H](C)OC(=O)[C@@H](NC(=O)CNC(=O)c2cccc(O)c2O)[C@@H](C)OC(=O)[C@H]1NC(=O)CNC(=O)c1cccc(O)c1O [BB, bacillibactin]",growth promotion of B. subtilis HB5600 (in words),[1],promoted growth
same,"growth stimulation of B. subtilis HB5625, feuA deleted (in words)",[5],prevented growth stimulation
same,hydrolysis of the apo siderophore by BesA,esterase BesA [2],hydrolyzed sequentially
same,hydrolysis by Fes,esterase Fes [6],did not react
same,resistance to acid hydrolysis,[7],remained essentially intact
same,log K3,[8],12.1
same,log K4,[8],8.43
same,log K5,[8],7.43
same,log K6,[8],6.77
same,log K2,[8],12.1
same,log K1,[8],12.1
same,Σlog K1-6,[8],58.93
same,log β110,[9],47.6
same,pM(Fe^III),[9],33.1
"O=C(CNC(=O)c1cccc(O)c1O)N[C@@H]1COC(=O)[C@H](NC(=O)CNC(=O)c2cccc(O)c2O)COC(=O)[C@H](NC(=O)CNC(=O)c2cccc(O)c2O)COC1=O [D-SGC, N,N′,N″-Tris[2,3-dihydroxybenzoyl-glycinyl]cyclotri-D-seryl trilactone]",growth promotion of B. subtilis HB5600 (in words),[1],no significant zone of growth stimulation
same,hydrolysis of the apo siderophore by BesA,esterase BesA [2],no effect; also recorded: did not affect
same,hydrolysis by Fes,esterase Fes [6],did not react
"O=C(N[C@H]1COC(=O)[C@@H](NC(=O)c2cccc(O)c2O)COC(=O)[C@@H](NC(=O)c2cccc(O)c2O)COC1=O)c1cccc(O)c1O [Ent, Enterobactin]",growth promotion of B. subtilis HB5600 (in words),[1],promoted growth
same,"growth stimulation of B. subtilis HB5625, feuA deleted (in words)",[5],prevented growth stimulation
same,hydrolysis of the apo siderophore by BesA,esterase BesA [2],hydrolyzed sequentially
same,resistance to acid hydrolysis,[7],completely degraded
same,log K3,[8],12.1
same,log K4,[8],8.6
same,log K5,[8],7.5
same,log K6,[8],6.0
same,log K2,[8],12.1
same,log K1,[8],12.1
same,Σlog K1-6,[8],58.4
same,log β110,[9],49
same,pM(Fe^III),[9],34.3
same,hydrolysis by Fes,esterase Fes [4],subject to enzymatic sequential hydrolysis
"O=C(CNC(=O)c1cccc(O)c1O)N[C@H]1COC(=O)[C@@H](NC(=O)CNC(=O)c2cccc(O)c2O)COC(=O)[C@@H](NC(=O)CNC(=O)c2cccc(O)c2O)COC1=O [SGC, SERglyCAM]",log K4,"[10]; [LH3]^3-, 0.1 M KCl, 25 °C",8.37(3)
same,log K5,"[10]; [LH4]^2-, 0.1 M KCl, 25 °C",7.54(2)
same,log K6,"[10]; [LH5]^-, 0.1 M KCl, 25 °C",6.68(3)
same,Σlog K1-6,[10]; sum of the stepwise protonation constants,58.89
same,log β110,"[11]; [FeL]^3-, competition with EDTA, 0.1 M KCl, 25 °C, pH 5 to 7.5",44.1(2)
same,pM(Fe^III),"[11]; pH 7.4, 1 μM total iron, 10 μM total ligand",29.6
same,growth promotion of B. subtilis HB5600 (in words),[1],promoted growth
same,"growth stimulation of B. subtilis HB5625, feuA deleted (in words)",[5],prevented growth stimulation
same,hydrolysis of the apo siderophore by BesA,esterase BesA [2],hydrolyzed sequentially
C[C@H]1OC(=O)[C@@H](NC(=O)CNC(=O)c2cccc([O-])c2[O-])[C@@H](C)OC(=O)[C@@H](NC(=O)CNC(=O)c2cccc([O-])c2[O-])[C@@H](C)OC(=O)[C@H]1NC(=O)CNC(=O)c1cccc([O-])c1[O-].[Fe+3] [[Fe^III(BB)]^3-],Kd,[12],15 nM
same,reaction of the ferric complex with BesA,esterase BesA [13],the UV-Vis spectra changed
O=C(N[C@@H]1COC(=O)[C@H](NC(=O)c2cccc([O-])c2[O-])COC(=O)[C@H](NC(=O)c2cccc([O-])c2[O-])COC1=O)c1cccc([O-])c1[O-].[Fe+3] [[Fe^III(D-Ent)]^3-],Kd,[12],10 nM
same,reaction of the ferric complex with BesA,esterase BesA [13],No change in the absorption spectra
same,hydrolysis by Fes,esterase Fes [4],neither apo-D-Ent nor [Fe^III(D-Ent)]^3- are hydrolyzed by Fes
same,growth promotion of E. coli,E. coli,does not promote growth
O=C(N[C@H]1COC(=O)[C@@H](NC(=O)c2cccc([O-])c2[O-])COC(=O)[C@@H](NC(=O)c2cccc([O-])c2[O-])COC1=O)c1cccc([O-])c1[O-].[Fe+3] [[Fe^III(Ent)]^3-],Kd,[12],19 nM
same,reaction of the ferric complex with BesA,esterase BesA [13],the UV-Vis spectra changed
same,hydrolysis by Fes,esterase Fes [4],subject to enzymatic sequential hydrolysis
O=C(CNC(=O)c1cccc([O-])c1[O-])N[C@H]1COC(=O)[C@@H](NC(=O)CNC(=O)c2cccc([O-])c2[O-])COC(=O)[C@@H](NC(=O)CNC(=O)c2cccc([O-])c2[O-])COC1=O.[Fe+3] [[Fe^III(SGC)]^3-],Kd,[12],52 nM
same,iron transport into B. subtilis,B. subtilis ATCC 6051 [14],transported into B. subtilis at levels similar to that of [Fe^III(BB)]^3-
same,reaction of the ferric complex with BesA,esterase BesA [13],the UV-Vis spectra changed
